# Results published in PubChem BioAssay AID1745844 (Carcinogenic Potency Database (CPDB), 2022).
# Where “and” joins values, the source holds several entries; their conditions need not be identical. Identical values can stand only once. Calls of active or inactive are those of the source. The rule behind the calls is not given here.
# Test system: rodent lifetime carcinogenesis bioassay, tumor incidence TD50
# Experiment: carcinogenic potency in animals, long-term in vivo studies, CPDB compilation (AID 1745844)
compound,measurement,setting,value
O=NO,TD50,"hamster, strain Syrian Golden, females, in feed, site: any site (literature study), lesion: one or several types, types not named, dosed 97 weeks, study length 97 weeks",477 mg/kg/day
same,TD50,"mouse, strain B6C3F1, females, in drinking water, site: any site (literature study), lesion: several types, types named in the paper, dosed 104 weeks, study length 104 weeks",459 mg/kg/day
same,TD50,"mouse, strain B6C3F1, females, in drinking water, site: forestomach, lesion: squamous-cell carcinoma + squamous-cell papilloma, dosed 104 weeks, study length 104 weeks",1610 mg/kg/day
same,TD50,"mouse, strain B6C3F1, females, in drinking water, site: lung, lesion: alveolar/bronchiolar adenoma + alveolar/bronchiolar carcinoma, dosed 104 weeks, study length 104 weeks",843 mg/kg/day
same,TD50,"mouse, strain B6C3F1, males, in drinking water, site: any site (literature study), lesion: several types, types named in the paper, dosed 104 weeks, study length 104 weeks",9190 mg/kg/day (inactive)
same,TD50,"mouse, strain B6C3F1, males, in drinking water, site: lung, lesion: alveolar/bronchiolar adenoma + alveolar/bronchiolar carcinoma, dosed 104 weeks, study length 104 weeks",990 mg/kg/day
same,carcinogen call,"mouse, strain C57BL/6, females, in drinking water, site: liver, lesion: several types, types named in the paper, dosed 117 weeks, study length 126 weeks",negative (inactive)
same,TD50,"mouse, strain C57BL/6, females, in drinking water, site: lung, lesion: one or several types, types not named, dosed 117 weeks, study length 126 weeks",5200 mg/kg/day (inactive)
same,carcinogen call,"mouse, strain C57BL/6, females, in feed, site: any site (literature study), lesion: several types, types named in the paper, dosed 52 weeks, study length 69 weeks",negative (inactive)
same,carcinogen call,"mouse, strain C57BL/6, females, in feed, site: liver, lesion: hepatocellular carcinoma, dosed 52 weeks, study length 69 weeks",negative (inactive)
same,carcinogen call,"mouse, strain C57BL/6, females, in feed, site: lung, lesion: adenoma, dosed 52 weeks, study length 69 weeks",negative (inactive)
same,TD50,"mouse, strain C57BL/6, males, in feed, site: any site (literature study), lesion: several types, types named in the paper, dosed 52 weeks, study length 69 weeks",1210 mg/kg/day (inactive)
same,carcinogen call,"mouse, strain C57BL/6, males, in feed, site: liver, lesion: hepatocellular carcinoma, dosed 52 weeks, study length 69 weeks",negative (inactive)
same,TD50,"mouse, strain C57BL/6, males, in feed, site: lung, lesion: adenoma, dosed 52 weeks, study length 69 weeks",1610 mg/kg/day (inactive)
same,carcinogen call,"mouse, strain ICR/Jcl, females, in drinking water, site: any site (literature study), lesion: several types, types named in the paper, dosed 109 weeks, study length 109 weeks",negative (inactive)
same,carcinogen call,"mouse, strain ICR/Jcl, females, in drinking water, site: liver, lesion: one or several types, types not named, dosed 109 weeks, study length 109 weeks",negative (inactive)
same,TD50,"mouse, strain ICR/Jcl, females, in drinking water, site: lung, lesion: one or several types, types not named, dosed 109 weeks, study length 109 weeks",7230 mg/kg/day (inactive)
same,carcinogen call,"mouse, strain ICR/Jcl, males, in drinking water, site: any site (literature study), lesion: several types, types named in the paper, dosed 109 weeks, study length 109 weeks",negative (inactive)
same,TD50,"mouse, strain ICR/Jcl, males, in drinking water, site: liver, lesion: one or several types, types not named, dosed 109 weeks, study length 109 weeks",25000 mg/kg/day (inactive)
same,TD50,"mouse, strain ICR/Jcl, males, in drinking water, site: lung, lesion: one or several types, types not named, dosed 109 weeks, study length 109 weeks",16300 mg/kg/day (inactive)
same,TD50,"mouse, strain Swiss CD-1, females, in drinking water, site: liver, lesion: hepatocellular tumor, dosed 34 weeks, study length 125 weeks",744 mg/kg/day (inactive)
same,carcinogen call,"mouse, strain Swiss CD-1, females, in drinking water, site: lung, lesion: one or several types, types not named, dosed 34 weeks, study length 125 weeks",negative (inactive)
same,carcinogen call,"mouse, strain Swiss CD-1, males, in drinking water, site: liver, lesion: hepatocellular tumor, dosed 34 weeks, study length 115 weeks",negative (inactive)
same,TD50,"mouse, strain Swiss CD-1, males, in drinking water, site: lung, lesion: one or several types, types not named, dosed 34 weeks, study length 115 weeks",103 mg/kg/day (inactive)
same,carcinogen call,"mouse, strain VM, females, in drinking water, site: brain, lesion: glioma, dosed 134 weeks, study length 134 weeks",negative (inactive)
same,carcinogen call,"mouse, strain VM, males, in drinking water, site: brain, lesion: glioma, dosed 113 weeks, study length 113 weeks",negative (inactive)
same,TD50,"rat, strain Charles River CD (Sprague-Dawley), both sexes, in feed, site: all sites, lesion: malignant lymphoma, dosed 123 weeks, study length 123 weeks",539 mg/kg/day
same,TD50,"rat, strain Charles River CD (Sprague-Dawley), both sexes, in feed, site: liver, lesion: angiosarcoma, dosed 123 weeks, study length 123 weeks",5840 mg/kg/day
same,TD50,"rat, strain Charles River CD (Sprague-Dawley), both sexes, in feed, site: spleen, lesion: lymphoma, dosed 123 weeks, study length 123 weeks",601 mg/kg/day
same,carcinogen call,"rat, strain F344/DuCrj, males, in drinking water, site: forestomach, lesion: one or several types, types not named, dosed 51 weeks, study length 51 weeks",negative (inactive)
same,carcinogen call,"rat, strain F344/DuCrj, males, in drinking water, site: stomach, glandular, lesion: one or several types, types not named, dosed 51 weeks, study length 51 weeks",negative (inactive)
same,TD50,"rat, strain Fischer 344, females, in drinking water, site: adrenal gland, lesion: medullary tumor, dosed 104 weeks, study length 128 weeks",163 mg/kg/day
same,TD50,"rat, strain Fischer 344, females, in drinking water, site: any site (literature study), lesion: several types, types named in the paper, dosed 104 weeks, study length 104 weeks",74400 mg/kg/day (inactive)
same,carcinogen call,"rat, strain Fischer 344, females, in drinking water, site: any site (literature study), lesion: several types, types named in the paper, dosed 104 weeks, study length 120 weeks",negative (inactive)
same,TD50,"rat, strain Fischer 344, females, in drinking water, site: liver, lesion: hepatocellular carcinoma, dosed 104 weeks, study length 128 weeks",1550 mg/kg/day
same,TD50,"rat, strain Fischer 344, females, in drinking water, site: liver, lesion: neoplastic nodule, dosed 104 weeks, study length 128 weeks",185 mg/kg/day
same,carcinogen call,"rat, strain Fischer 344, females, in drinking water, site: liver, lesion: several types, types named in the paper, dosed 104 weeks, study length 120 weeks",negative (inactive)
same,TD50,"rat, strain Fischer 344, females, in drinking water, site: liver, lesion: several types, types named in the paper, dosed 104 weeks, study length 128 weeks",153 mg/kg/day
same,TD50,"rat, strain Fischer 344, females, in drinking water, site: mammary tissue, wider than the gland, lesion: one or several types, types not named, dosed 104 weeks, study length 128 weeks",115 mg/kg/day
same,TD50,"rat, strain Fischer 344, females, in drinking water, site: thyroid gland, lesion: carcinoma, dosed 104 weeks, study length 128 weeks",163 mg/kg/day
same,TD50,"rat, strain Fischer 344, females, in drinking water, site: uterus, lesion: polyp, dosed 104 weeks, study length 128 weeks",218 mg/kg/day
same,carcinogen call,"rat, strain Fischer 344, females, in feed, site: any site (literature study), lesion: several types, types named in the paper, dosed 52 weeks, study length 69 weeks",negative (inactive)
same,TD50,"rat, strain Fischer 344, females, in feed, site: liver, lesion: carcinoma, dosed 104 weeks, study length 130 weeks",470 mg/kg/day
same,TD50,"rat, strain Fischer 344, females, in feed, site: liver, lesion: hepatocellular carcinoma, dosed 104 weeks, study length 128 weeks",629 mg/kg/day
same,TD50,"rat, strain Fischer 344, females, in feed, site: liver, lesion: hepatocellular carcinoma, dosed 104 weeks, study length 130 weeks",516 mg/kg/day
same,TD50,"rat, strain Fischer 344, females, in feed, site: liver, lesion: neoplastic nodule, dosed 104 weeks, study length 128 weeks",164 mg/kg/day
same,TD50,"rat, strain Fischer 344, females, in feed, site: liver, lesion: neoplastic nodule, dosed 104 weeks, study length 130 weeks",199 mg/kg/day and 218 mg/kg/day
same,carcinogen call,"rat, strain Fischer 344, females, in feed, site: liver, lesion: one or several types, types not named, dosed 52 weeks, study length 69 weeks",negative (inactive)
same,TD50,"rat, strain Fischer 344, females, in feed, site: liver, lesion: several types, types named in the paper, dosed 104 weeks, study length 128 weeks",141 mg/kg/day
same,TD50,"rat, strain Fischer 344, females, in feed, site: liver, lesion: several types, types named in the paper, dosed 104 weeks, study length 130 weeks",124 mg/kg/day and 136 mg/kg/day
same,carcinogen call,"rat, strain Fischer 344, males, in drinking water, site: any site (literature study), lesion: several types, types named in the paper, dosed 104 weeks, study length 120 weeks",negative (inactive)
same,TD50,"rat, strain Fischer 344, males, in drinking water, site: liver, lesion: hepatocellular adenoma + hepatoblastoma + hepatocellular carcinoma, dosed 104 weeks, study length 104 weeks",6550 mg/kg/day
same,TD50,"rat, strain Fischer 344, males, in drinking water, site: liver, lesion: hepatocellular carcinoma, dosed 104 weeks, study length 128 weeks",1040 mg/kg/day
same,TD50,"rat, strain Fischer 344, males, in drinking water, site: liver, lesion: several types, types named in the paper, dosed 104 weeks, study length 120 weeks",1310 mg/kg/day (inactive)
same,TD50,"rat, strain Fischer 344, males, in drinking water, site: liver, lesion: several types, types named in the paper, dosed 104 weeks, study length 128 weeks",946 mg/kg/day
same,TD50,"rat, strain Fischer 344, males, in drinking water, site: skin, lesion: fibroma, dosed 104 weeks, study length 104 weeks",667 mg/kg/day (inactive)
same,carcinogen call,"rat, strain Fischer 344, males, in feed, site: all sites, lesion: granulocytic leukemia, dosed 115 weeks, study length 115 weeks",negative (inactive)
same,carcinogen call,"rat, strain Fischer 344, males, in feed, site: all sites, lesion: mononuclear-cell leukemia, dosed 115 weeks, study length 115 weeks",negative (inactive)
same,carcinogen call,"rat, strain Fischer 344, males, in feed, site: any site (literature study), lesion: one or several types, types not named, dosed 115 weeks, study length 115 weeks",negative (inactive)
same,carcinogen call,"rat, strain Fischer 344, males, in feed, site: any site (literature study), lesion: several types, types named in the paper, dosed 52 weeks, study length 69 weeks",negative (inactive)
same,TD50,"rat, strain Fischer 344, males, in feed, site: liver, lesion: neoplastic nodule, dosed 104 weeks, study length 130 weeks",467 mg/kg/day and 674 mg/kg/day
same,carcinogen call,"rat, strain Fischer 344, males, in feed, site: liver, lesion: one or several types, types not named, dosed 52 weeks, study length 69 weeks",negative (inactive)
same,TD50,"rat, strain Fischer 344, males, in feed, site: liver, lesion: several types, types named in the paper, dosed 104 weeks, study length 130 weeks",445 mg/kg/day and 641 mg/kg/day
same,carcinogen call,"rat, strain Fischer 344, males, in feed, site: several sites, sites named in the paper, lesion: lymphoma, dosed 115 weeks, study length 115 weeks",negative (inactive)
same,carcinogen call,"rat, strain Fischer 344, males, in feed, site: testis, lesion: interstitial-cell tumor, dosed 115 weeks, study length 115 weeks",negative (inactive)
same,carcinogen call,"rat, strain MRC, females, in drinking water, site: any site (literature study), lesion: one or several types, types not named, dosed 67 weeks, study length 122 weeks",negative (inactive)
same,TD50,"rat, strain MRC, females, in drinking water, site: any site (literature study), lesion: several types, types named in the paper, dosed 84 weeks, study length 104 weeks",57.3 mg/kg/day (inactive)
same,carcinogen call,"rat, strain MRC, females, in drinking water, site: liver, lesion: one or several types, types not named, dosed 67 weeks, study length 122 weeks",negative (inactive)
same,carcinogen call,"rat, strain MRC, males, in drinking water, site: any site (literature study), lesion: one or several types, types not named, dosed 67 weeks, study length 122 weeks",negative (inactive)
same,TD50,"rat, strain MRC, males, in drinking water, site: any site (literature study), lesion: several types, types named in the paper, dosed 84 weeks, study length 104 weeks",61.9 mg/kg/day (inactive)
same,carcinogen call,"rat, strain MRC, males, in drinking water, site: liver, lesion: one or several types, types not named, dosed 67 weeks, study length 122 weeks",negative (inactive)
same,carcinogen call,"rat, strain Wistar, males, in drinking water, site: liver, lesion: hepatocellular carcinoma, dosed 94 weeks, study length 94 weeks",negative (inactive)
same,carcinogen call,"rat, strain Wistar, males, in drinking water, site: liver, lesion: one or several types, types not named, dosed 102 weeks, study length 102 weeks",negative (inactive)
same,carcinogen call,"rat, strain Wistar, males, in drinking water, site: lung, lesion: one or several types, types not named, dosed 94 weeks, study length 94 weeks",negative (inactive)
same,carcinogen call,"rat, strain Wistar, males, in drinking water, site: nasal cavity, lesion: one or several types, types not named, dosed 94 weeks, study length 94 weeks",negative (inactive)
same,TD50,"rat, strain Wistar, males, in feed, site: liver, lesion: several types, types named in the paper, dosed 92 weeks, study length 92 weeks",155 mg/kg/day
